# According to US20230391739A1, “ARYL DERIVATIVES FOR TREATING TRPM3 MEDIATED DISORDERS” (Katholieke Universiteit Leuven, priority 2020, published 2023):
# Target: T1, mouse TRPM3α2 (mTRPM3) ion channel (Mus musculus, UniProt J9SQF3)
# T1 construct: expressed in transfected cells; host or cells: flip-in HEK293
# Assay: TRPM3 ion channel driven Ca2+ uptake, Fluo-4 AM assay, PS-stimulated (mTRPM3)
# Format: cell-based
# Conditions: TRPM3 overexpressing flip-in HEK293 cells stimulated with Pregnenolone sulfate (PS) 50 μM, activity ranges A, B, C
# Procedure: Monitoring the TRPM3 Ion Channel Driven Ca^2+ Uptake.
# In order to monitor the inhibition of the mouse TRPM3α2 (mTRPM3) ion channel by the compounds of the invention, a cellular system making use of an mTRPM3alpha2 or hTRPM3 overexpressing cell line (flip-in HEK293) was used. The TRPM3 channel was stimulated/opened with Pregnenolone sulfate (PS) (50 μM) which results in Ca^2+ influx.
# For mTRPM3, the intracellular Ca^2+ was measured with a Calcium responsive dye, Fluor-4 AM ester (Invitrogen). Cells were cultured until a confluence of 80-90%, washed with Versene (Invitrogen) and detached from the surface by a short incubation with 0.05% Trypsin (Invitrogen). The trypsination process was stopped by the addition of complete cell culture medium (DMEM, glutamax, 10% FCS, NEAA, Pen-Strep). Cells were collected and resuspended in Krebs buffer without Calcium at RT.
# Prior the cell seeding (±2000 cells/well into a black, 384 well plate (Greiner)) the diluted compound was added in the assay plate, together with the PS dissolved in Krebs buffer containing Calcium. […] Directly after cell addition the plates were read on an Envision fluorescence reader (Perkin Elmer) by an Excitation of 485 nm and emission at 535 nm.
# Channel inhibition was calculated compared to a non-PS stimulated control versus a condition stimulated with PS (50 μM) with vehicle. The ability of the compounds of the invention to inhibit this activity was determined as: Percentage inhibition=[1−((RFU determined for sample with test compound present−RFU determined for sample with positive control inhibitor) divided by (RFU determined in the presence of vehicle−RFU determined for sample with positive control inhibitor))]*100.
# The activities of the Example compounds tested are depicted in the table below.
# T1 sequence (J9SQF3 1-1709 isoform J9SQF3-12): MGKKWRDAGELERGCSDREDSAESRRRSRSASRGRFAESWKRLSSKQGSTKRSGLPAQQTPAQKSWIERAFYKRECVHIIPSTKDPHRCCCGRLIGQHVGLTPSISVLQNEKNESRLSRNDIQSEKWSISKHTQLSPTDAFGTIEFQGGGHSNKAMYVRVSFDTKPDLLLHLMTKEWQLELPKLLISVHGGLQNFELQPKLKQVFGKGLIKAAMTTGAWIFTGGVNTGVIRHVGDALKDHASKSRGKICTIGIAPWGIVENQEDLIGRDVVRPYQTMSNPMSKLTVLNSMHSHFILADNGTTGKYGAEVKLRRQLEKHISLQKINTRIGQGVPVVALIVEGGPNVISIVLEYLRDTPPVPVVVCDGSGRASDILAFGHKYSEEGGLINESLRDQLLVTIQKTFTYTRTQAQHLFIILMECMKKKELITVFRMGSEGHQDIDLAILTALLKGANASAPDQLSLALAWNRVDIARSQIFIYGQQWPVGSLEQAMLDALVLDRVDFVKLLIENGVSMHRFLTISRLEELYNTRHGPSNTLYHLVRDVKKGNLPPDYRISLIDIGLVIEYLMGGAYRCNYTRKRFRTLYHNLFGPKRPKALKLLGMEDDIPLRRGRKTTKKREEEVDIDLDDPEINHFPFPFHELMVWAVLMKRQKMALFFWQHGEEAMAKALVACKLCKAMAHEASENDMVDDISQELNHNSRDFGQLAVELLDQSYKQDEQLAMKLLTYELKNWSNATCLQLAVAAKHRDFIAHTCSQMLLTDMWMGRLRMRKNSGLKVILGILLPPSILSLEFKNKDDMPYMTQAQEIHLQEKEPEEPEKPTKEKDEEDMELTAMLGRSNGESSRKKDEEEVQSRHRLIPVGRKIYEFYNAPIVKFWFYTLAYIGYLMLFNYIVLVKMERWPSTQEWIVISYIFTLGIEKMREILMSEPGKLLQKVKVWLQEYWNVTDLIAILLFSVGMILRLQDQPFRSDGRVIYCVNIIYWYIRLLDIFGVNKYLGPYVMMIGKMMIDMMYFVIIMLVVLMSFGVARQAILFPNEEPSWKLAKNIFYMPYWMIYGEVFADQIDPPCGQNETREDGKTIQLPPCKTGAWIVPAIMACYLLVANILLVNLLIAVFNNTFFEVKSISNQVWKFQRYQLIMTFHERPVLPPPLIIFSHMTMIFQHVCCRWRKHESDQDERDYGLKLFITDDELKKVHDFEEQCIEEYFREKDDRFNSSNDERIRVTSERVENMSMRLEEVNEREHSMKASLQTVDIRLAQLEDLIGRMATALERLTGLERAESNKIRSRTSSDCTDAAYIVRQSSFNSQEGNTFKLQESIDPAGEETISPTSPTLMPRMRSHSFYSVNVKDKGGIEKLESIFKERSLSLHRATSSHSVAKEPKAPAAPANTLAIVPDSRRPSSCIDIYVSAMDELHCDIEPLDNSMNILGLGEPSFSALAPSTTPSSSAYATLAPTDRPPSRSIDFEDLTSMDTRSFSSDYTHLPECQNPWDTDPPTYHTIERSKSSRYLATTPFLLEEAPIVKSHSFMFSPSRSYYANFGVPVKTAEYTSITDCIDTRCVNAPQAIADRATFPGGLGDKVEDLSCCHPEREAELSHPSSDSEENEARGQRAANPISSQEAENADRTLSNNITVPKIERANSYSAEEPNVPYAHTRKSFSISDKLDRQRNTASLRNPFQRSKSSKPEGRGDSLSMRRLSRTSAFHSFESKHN
row,SMILES,IC50
1,"Cc1oc2c(C)cc(OCc3ccccc3)cc2c1C(=O)NC1CNCC1(F)F (single isomer, unassigned) [Cpd 307-En 2, 5-(benzyloxy)-N-(4,4-difluoropyrrolidin-3-yl)-2,7-dimethylbenzofuran-3-carboxamide]",> 20000 nM
2,"Cc1cc2oc(C)c(C(=O)NC3CNCC3(F)F)c2cc1OCc1ccccc1 (single isomer, unassigned) [Cpd 303-En 2, 5-(benzyloxy)-N-(4,4-difluoropyrrolidin-3-yl)-2,6-dimethylbenzofuran-3-carboxamide]",> 20000 nM
3,"Cc1oc2ccc(OCc3cccc(CNC(=O)OC(C)(C)C)c3)cc2c1C(=O)NC1CCNC1=O (stereo not shown) [Cpd 261, tert-butyl (3-(((2-methyl-3-((2-oxopyrrolidin-3-yl)carbamoyl)benzofuran-5-yl)oxy)methyl)-benzyl)carbamate]",> 20000 nM
4,"Cc1oc2ccc(OCc3ccccc3)cc2c1C(=O)NCc1ccccn1 [Cpd 099, 5-(benzyloxy)-2-methyl-N-(pyridin-2-ylmethyl)benzofuran-3-carboxamide]",1000 to 20000 nM
5,"Cc1cc2oc(C)c(C(=O)NC3CNCC3(F)F)c2cc1OCc1ccccc1 (single isomer, unassigned) [Cpd 303-En 1, 5-(benzyloxy)-N-(4,4-difluoropyrrolidin-3-yl)-2,6-dimethylbenzofuran-3-carboxamide]",1000 to 20000 nM
6,"Cc1oc2ccc(OCc3ccc(F)cc3)cc2c1C(=O)NS(=O)(=O)C1CC1 [Cpd 177, N-(cyclopropylsulfonyl)-5-((4-fluorobenzyl)oxy)-2-methylbenzofuran-3-carboxamide]",1000 to 20000 nM
7,"Cc1oc2ccc(OCc3ccccc3)cc2c1C(=O)NCCc1ccccc1 [Cpd 134, 5-(benzyloxy)-2-methyl-N-phenethylbenzofuran-3-carboxamide]",> 20000 nM
8,"Cc1oc2ccc(OCc3ccccc3S(C)(=O)=O)cc2c1C(=O)NC1CCNCC1(F)F (single isomer, unassigned) [Cpd 333-En 1, N-(3,3-difluoropiperidin-4-yl)-2-methyl-5-((2-(methylsulfonyl)benzyl)oxy)benzofuran-3-carboxamide]",1000 to 20000 nM
9,"Cc1oc2ccc(OCc3ccccc3)cc2c1C(=O)N[C@@H]1CN[C@@H](C(=O)O)C1 [Cpd 163, (2R,4S)-4-(5-(benzyloxy)-2-methylbenzofuran-3-carboxamido)pyrrolidine-2-carboxylic acid]",1000 to 20000 nM
10,"Cc1oc2ccc(OCc3ccccc3)cc2c1C(=O)NC1CC(=O)N(C)C1 (stereo not shown) [Cpd 110, 5-(benzyloxy)-2-methyl-N-(1-methyl-5-oxopyrrolidin-3-yl)benzofuran-3-carboxamide]",1000 to 20000 nM
11,"Cc1oc2ccc(OCc3ccccc3)cc2c1C(=O)NCc1ccccc1 [Cpd 098, N-benzyl-5-(benzyloxy)-2-methylbenzofuran-3-carboxamide]",> 20000 nM
12,"COC1CCC(NC(=O)c2c(C)oc3ccc(OCc4ccccc4)cc23)CC1 (stereo not shown) [Cpd 159, 5-(benzyloxy)-N-(4-methoxycyclohexyl)-2-methylbenzofuran-3-carboxamide]",1000 to 20000 nM
13,"Cc1oc2c(Cl)cc(OCc3ccccc3)cc2c1C(=O)NC1CNCC1(F)F (single isomer, unassigned) [Cpd 304-En 2, 5-(benzyloxy)-7-chloro-N-(4,4-difluoropyrrolidin-3-yl)-2-methylbenzofuran-3-carboxamide]",> 20000 nM
14,"Cc1oc2ccc(OCc3ccccc3)cc2c1C(=O)N[C@@H]1C[C@H]2CCC[C@@H](C1)N2 [Cpd 184, 5-(benzyloxy)-N-((1R,3s,5S)-9-azabicyclo[3.3.1]nonan-3-yl)-2-methylbenzofuran-3-carboxamide]",< 1000 nM
15,"Cc1oc2ccc(OCc3ccccc3)cc2c1C(=O)NCC1CCNCC1 [Cpd 121, 5-(benzyloxy)-2-methyl-N-(piperidin-4-ylmethyl)benzofuran-3-carboxamide]",1000 to 20000 nM

# Continued, values first:
row,IC50,SMILES
1,< 1000 nM,"Cc1oc2ccc(OC(CO)c3ccccc3F)cc2c1C(=O)N[C@@H](CO)C(N)=O (single isomer, unassigned) [Cpd 335-Dia 1]"
2,< 1000 nM,"Cc1oc2ccc(OCc3ccccc3)c(C)c2c1C(=O)NC1CNCC1(F)F (single isomer, unassigned) [Cpd 299-En 2, 5-(benzyloxy)-N-(4,4-difluoropyrrolidin-3-yl)-2,4-dimethylbenzofuran-3-carboxamide]"
3,< 1000 nM,"Cc1oc2ccc(OCc3ccccc3)cc2c1C(=O)NCC1(CO)COC1 [Cpd 128, 5-(benzyloxy)-N-((3-(hydroxymethyl)oxetan-3-yl)methyl)-2-methylbenzofuran-3-carboxamide]"
4,< 1000 nM,"Cc1oc2ccc(OCc3c(F)cccc3F)cc2c1C(=O)N[C@H]1CCNC1 [Cpd 136, (S)-5-((2,6-difluorobenzyl)oxy)-2-methyl-N-(pyrrolidin-3-yl)benzofuran-3-carboxamide]"
5,1000 to 20000 nM,"Cc1oc2ccc(OCc3ccc(Cl)cc3)cc2c1C(=O)O [Cpd 016, 5-((4-chlorobenzyl)oxy)-2-methylbenzofuran-3-carboxylic acid]"
6,< 1000 nM,"Cc1oc2ccc(OCc3ccccc3)cc2c1C(=O)NO [Cpd 036, 5-(benzyloxy)-N-hydroxy-2-methylbenzofuran-3-carboxamide]"
7,< 1000 nM,"Cc1oc2ccc(OCc3ccccc3)cc2c1C(=O)NC[C@@H]1CCCO1 [Cpd 090, (S)-5-(benzyloxy)-2-methyl-N-((tetrahydrofuran-2-yl)methyl)benzofuran-3-carboxamide]"
8,< 1000 nM,"Cc1oc2ccc(OC(CO)c3ccccc3F)cc2c1C(=O)NC1(C(N)=O)CCC1 (single isomer, unassigned) [Cpd 345-En 1, N-(1-carbamoylcyclobutyl)-5-(1-(2-fluorophenyl)-2-hydroxyethoxy)-2-methylbenzofuran-3-carboxamide]"
9,< 1000 nM,"COC(=O)[C@@H]1C[C@H](NC(=O)c2c(C)oc3ccc(OCc4ccccc4)cc23)CN1 [Cpd 191, methyl (2S,4S)-4-(5-(benzyloxy)-2-methylbenzofuran-3-carboxamido)pyrrolidine-2-carboxylate]"
10,1000 to 20000 nM,"Cc1oc2ccc(OCc3ccccc3)cc2c1C(=O)NC1CCNC(=O)C1 (stereo not shown) [Cpd 108, 5-(benzyloxy)-2-methyl-N-(2-oxopiperidin-4-yl)benzofuran-3-carboxamide]"
11,< 1000 nM,"Cc1oc2ccc(OCc3ccccc3)cc2c1C(=O)NC1CCOC1 (stereo not shown) [Cpd 051, 5-(benzyloxy)-2-methyl-N-(tetrahydrofuran-3-yl)benzofuran-3-carboxamide]"
12,< 1000 nM,"Cc1oc2ccc(OCc3ccccc3)cc2c1C(=O)NC1CCN(C)C1 (stereo not shown) [Cpd 076, 5-(benzyloxy)-2-methyl-N-(1-methylpyrrolidin-3-yl)benzofuran-3-carboxamide]"
13,< 1000 nM,"Cc1oc2ccc(OC(C)c3ccccc3C(F)(F)F)cc2c1C(=O)N[C@H]1CCNC1 (mixture of isomers) [Cpd 220, rac-2-methyl-N—((R)-pyrrolidin-3-yl)-5-(1-(2-(trifluoromethyl)phenyl)ethoxy)benzofuran-3-carboxamide]"
14,< 1000 nM,"Cc1oc2ccc(OCc3ccccc3)cc2c1C(=O)NC1CCN2CCCC12 (stereo not shown) [Cpd 144, 5-(benzyloxy)-N-(hexahydro-1H-pyrrolizin-1-yl)-2-methylbenzofuran-3-carboxamide]"
15,< 1000 nM,"Cc1oc2ccc(OCc3ccccc3)cc2c1C(=O)NC1CN(C2COC2)C1 [Cpd 148, 5-(benzyloxy)-2-methyl-N-(1-(oxetan-3-yl)azetidin-3-yl)benzofuran-3-carboxamide]"
16,< 1000 nM,"Cc1ccc(COc2ccc3oc(C)c(C(=O)N[C@H]4CCNC4)c3c2)cc1 [Cpd 085, (S)-2-methyl-5-((4-methylbenzyl)oxy)-N-(pyrrolidin-3-yl)benzofuran-3-carboxamide]"
17,< 1000 nM,"Cc1oc2ccc(OCc3cccc(C(F)(F)F)c3)cc2c1C(=O)N[C@H]1CCNC1 [Cpd 204, (S)-2-methyl-N-(pyrrolidin-3-yl)-5-((3-(trifluoromethyl)benzyl)oxy)benzofuran-3-carboxamide]"
18,< 1000 nM,"Cc1oc2ccc(COc3ccccc3F)cc2c1C(=O)NC(CO)C(N)=O (single isomer, unassigned) [Cpd 321-En 2, N-(1-amino-3-hydroxy-1-oxopropan-2-yl)-5-((2-fluorophenoxy)methyl)-2-methylbenzofuran-3-carboxamide]"
19,< 1000 nM,"Cc1oc2ccc(OCc3ccccc3F)cc2c1C(=O)NC1(CO)CCNC1=O (single isomer, unassigned) [Cpd 334-En 1]"
20,< 1000 nM,"Cc1oc2ccc(OCc3ccccc3)c(F)c2c1C(=O)NC1CNCC1(F)F (single isomer, unassigned) [Cpd 298-En 1, 5-(benzyloxy)-N-(4,4-difluoropyrrolidin-3-yl)-4-fluoro-2-methylbenzofuran-3-carboxamide]"
21,< 1000 nM,"COCC(Oc1ccc2oc(C)c(C(=O)N[C@@H](CO)C(N)=O)c2c1)c1ccccc1 (single isomer, unassigned) [Cpd 346-En 1]"
22,< 1000 nM,"Cc1oc2ccc(OCc3ccc(F)cc3)cc2c1C(=O)N[C@H]1CCNC1 [Cpd 097, (S)-5-((4-fluorobenzyl)oxy)-2-methyl-N-(pyrrolidin-3-yl)benzofuran-3-carboxamide]"
